Reference: paper PMC6278394, “Screening of Angiotensin-I Converting Enzyme Inhibitory Peptides Derived from Caulerpa lentillifera” (Molecules, 2018)
Ends that are not written are not given here.

How the values were obtained:
[1] = target: T1, ACE (EC 3.4.15.1) from rabbit lungs (Oryctolagus cuniculus, UniProt P12822); test: in vitro ACE inhibitory assay (HHL substrate, hippuric acid by RP-HPLC); assay type: biochemical; details: synthetic peptide; HHL 2.5 mM, borate buffer pH 8.3, 37 °C, HPLC read-out at 228 nm; triplicate, nonlinear regression (Graphpad Prism 6.0)
T1 construct: ACE (EC 3.4.15.1) from rabbit lungs; purchased Sigma Chemical Co. (St. Louis, MO, USA); host or cells: rabbit lung tissue
T1 sequence (P12822 34-1310): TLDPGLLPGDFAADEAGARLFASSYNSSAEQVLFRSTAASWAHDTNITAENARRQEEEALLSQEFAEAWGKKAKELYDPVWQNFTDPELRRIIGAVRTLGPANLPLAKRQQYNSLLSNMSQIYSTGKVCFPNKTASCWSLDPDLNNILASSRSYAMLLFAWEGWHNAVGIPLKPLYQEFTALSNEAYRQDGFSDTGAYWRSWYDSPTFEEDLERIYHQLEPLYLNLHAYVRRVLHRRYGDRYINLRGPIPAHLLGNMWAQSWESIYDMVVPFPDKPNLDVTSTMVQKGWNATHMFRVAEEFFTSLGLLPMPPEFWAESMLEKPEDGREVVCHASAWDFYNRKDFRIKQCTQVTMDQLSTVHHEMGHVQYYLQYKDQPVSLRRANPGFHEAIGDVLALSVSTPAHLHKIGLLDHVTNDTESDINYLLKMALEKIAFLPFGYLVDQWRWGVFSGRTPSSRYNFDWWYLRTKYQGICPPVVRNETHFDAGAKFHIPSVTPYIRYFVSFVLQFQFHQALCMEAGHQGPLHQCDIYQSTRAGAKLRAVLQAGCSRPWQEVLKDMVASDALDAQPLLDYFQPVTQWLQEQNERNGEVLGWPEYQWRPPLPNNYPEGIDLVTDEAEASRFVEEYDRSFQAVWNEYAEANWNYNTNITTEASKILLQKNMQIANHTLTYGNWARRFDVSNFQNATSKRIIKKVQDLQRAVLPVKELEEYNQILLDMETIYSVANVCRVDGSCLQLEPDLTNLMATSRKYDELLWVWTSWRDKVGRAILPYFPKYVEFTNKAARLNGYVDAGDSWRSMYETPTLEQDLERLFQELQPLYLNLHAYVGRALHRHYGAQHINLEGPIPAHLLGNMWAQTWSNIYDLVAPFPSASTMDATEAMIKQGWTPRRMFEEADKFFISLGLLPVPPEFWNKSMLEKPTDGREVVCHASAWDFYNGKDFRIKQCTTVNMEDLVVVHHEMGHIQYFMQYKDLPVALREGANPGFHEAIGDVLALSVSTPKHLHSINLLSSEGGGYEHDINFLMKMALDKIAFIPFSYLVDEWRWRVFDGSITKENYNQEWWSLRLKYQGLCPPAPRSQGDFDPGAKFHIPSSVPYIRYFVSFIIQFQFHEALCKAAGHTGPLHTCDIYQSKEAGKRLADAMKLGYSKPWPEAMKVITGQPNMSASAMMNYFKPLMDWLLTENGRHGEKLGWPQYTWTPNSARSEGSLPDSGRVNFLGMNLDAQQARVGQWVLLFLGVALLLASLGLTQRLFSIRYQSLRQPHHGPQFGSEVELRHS
Procedure: The ACEI activity assay was performed according to a previous report with a slight modification. For each assay, 30 µL 2.5 mM Hippuryl-L-histidyl-L-leucine (HHL) was used as a substrate and added by 10 µL of testing sample (peptides) at a certain concentration in 200 mM borate buffer containing 300 mM NaCl (adjusted to pH 8.3). Blank sample using 10 µL of borate buffer and was added by the same substrate. The positive control was 10 µL of 10 µM captopril. All samples were pre-incubated at 37 °C for 5 min. Subsequently, 20 µL of ACE (0.05 mU/µL) in 200 mM borate buffer was added to the blank sample, positive control and testing sample. The reaction was incubated statically at 37 °C for 30 min and then incubated thermostatically using shaker incubation (200 rpm) at 37 °C for 30 min. […] The HHL and ACE’s hydrolyzed product, hippuric acid (HA), were quantitatively analyzed using HPLC equipped with a C18 column. […] The result of HA was detected by UV detector at 228 nm. The ACE inhibition (%) was determined according to the following equation:ACE Inhibition (%) = [1 − (ΔAInhibitor/ΔABlank)] × 100
Here, ΔAInhibitor and ΔABlank were the peak areas of HA in testing and blank samples, respectively. […] The IC50 was determined using Graphpad Prism 6.0 (GraphPad Software, Inc., La Jolla, CA, USA) by a nonlinear regression of ACE inhibition result (%) caused by different concentrations of inhibitor.

[2] = target: T1, ACE (EC 3.4.15.1) from rabbit lungs; test: pre-incubation experiment of ACEI peptide with ACE (stability towards ACE, inhibitor type); assay type: biochemical; details: peptide 100 µM; for ACE inhibition activity without pre-incubation: before pre-incubation with ACE; for ACE inhibition activity after pre-incubation: pre-incubated with ACE (0.05 mU/µL) 3 h at 37 °C, then HHL 2.5 mM 1 h at 37 °C
Procedure: Since ACE is a dipeptidyl-carboxypeptidase, whether the ACEI peptides will be cleaved by ACE is a critical issue for an in vivo application. Pre-incubation of ACEI peptides with ACE before adding substrate is often used to monitor the reactivity between ACE and the ACEI peptide.
The stability of ACEI peptides towards peptidase ACE was determined according to the method described by Ruiz et al.. Briefly, ACEI peptide (at 100 µM) in 10 µL of deionized water was incubated with 20 µL of ACE (0.05 mU/µL) for 3 h at 37 °C. After that, 30 µL of 2.5 mM HHL was added and the reaction mixture was incubated at 37 °C for 1 h. The reaction was stopped by adding 60 µL 1 N HCl, and the inhibition degree of the peptide was calculated as in Section 3.5.

Substance: FDGIP [FP-5]
- IC50 [1]: 58.9 ± 0.68 µM
- ACE inhibition activity without pre-incubation [2]: 78.89%
- ACE inhibition activity after pre-incubation [2]: 76.47%

Substance: AIDPVRA [AA-7]
- IC50 [1]: 65.8 ± 0.92 µM
- decrease of inhibition activity after pre-incubation ([2]; 3 h pre-incubation with ACE at 37 °C): about 10%
- ACE inhibition activity without pre-incubation [2]: 68.07%
- ACE inhibition activity after pre-incubation [2]: 57.89%
